The source of these data is patent US11352331B2, “Crystal and salt of 4-(naphthalen-1-yl)-4H-1,2,4-triazole compound and preparation method therefor” (MEDSHINE DISCOVERY INC., priority 2017, dated 2022).

Like-named read-outs stand apart in the source and are kept apart here.

The subject of one series is human liver cells. The experiment in a line: Metabolite detection after incubation in human liver cells for 120 minutes (LC-UV-MSn). The format is in vitro ADME. Particulars: 10 μM. As for the experimental part:
The objective of this experiment is detect the metabolites of the compounds after incubation in human liver cells for 120 minutes using LC-UV-MS^n (n=1-2). After data collection, MetaboLynx™ software was used to analyze MS and MS^2 data.
After the cells were incubated with the samples for 2 hours, protein was precipitated using acetonitrile containing formic acid and then the mixture was centrifuged. The supernatant was taken out and blow-dried with nitrogen, and then redissolved and injected for analysis.

Series [1] can be described thus: Pharmacokinetics in cynomolgus monkeys after IV and PO administration. The series is classed as in vivo. The following applies: PO, 10 mg/kg. As for the experimental part: 24 healthy adult male cynomolgus monkeys were divided into 8 groups (there were IV and PO groups for each compound) with 3 animals per group.
An appropriate amount of the samples was weighted and dissolved in a certain amount of DMSO by ultrasound, followed by addition of PEG400 solution to obtain clear solutions (DMSO/PEG400/H2O (5/40/55)) of the compounds to be tested with a concentration of 2 mg/mL for IV administration.
An appropriate amount of the samples was weighted and dissolved in a certain amount of DMSO by ultrasound, followed by addition of 0.5% MC solution to obtain suspensions (DMSO/0.5% MC (5/95)) of the compounds to be tested with a concentration of 2 mg/mL for PO administration.
24 male cynomolgus monkeys were divided into 8 groups with 3 animals per group, and the drugs were administered through IV and PO after the animals had been fasting overnight. The dose for IV administration was 2 mg/kg and the dosing volume was 1 mL/kg; the dose for PO administration was 10 mg/kg and the dosing volume was 5 mL/kg.
In the IV administration groups, approximately 200 μL of blood was collected 0.083, 0.25, 0.5, 1, 2, 4, 6, 8, and 24 hours after administration; the collected blood samples were added into anticoagulation tubes containing K2-EDTA and centrifuged at 3000 rpm for 15 minutes; the plasma was isolated and stored at −80° C. In the PO administration groups, the blood was collected 0.25, 0.5, 1, 2, 4, 6, 8, and 24 hours after administration, and other operations were the same as in the IV administration group. After the plasma samples were pre-treated to precipitate the protein, the drug concentration in the plasma was determined by LC/MS/MS method. The linear range of the analysis method was 20.00-6000 nM. In PO administration group, urine was collected 0-24 hours after administration, and the drug concentration in the urine was determined by LC/MS/MS method. The linear range of the analysis method was 20.00-6000 nM.

The conditions of series [2]: Liver microsomes, Rat; cited from earlier work.
For series [3] the following is noted: Liver microsomes, Dog; cited from earlier work. For orientation: Liver microsomes are a subcellular fraction often used to study metabolism.
For series [4] the following is noted: Liver microsomes, Monkey; cited from earlier work.
The conditions of series [5]: Liver microsomes, Human; cited from earlier work.
Series [6] relates to Liver cells. Particulars: Rat; cited from earlier work.
The test system of series [7] is Liver cells. Particulars: Dog; cited from earlier work.
Series [8] relates to Liver cells. Particulars: Monkey; cited from earlier work.
For series [9], the system named is Liver cells. Particulars: Human; cited from earlier work.
The conditions of series [10]: human, 0-144 hour, after lesinurad, cited from earlier work.

Consider `O=C(O)CSc1nnc(Br)n1-c1ccc(C2CC2)c2ccccc12` (racemic) [(±)-Lesinurad, lesinurad, reference compound], for which, in the series on human liver cells, the UV area percentage amounted to 95.60%. Also, the “Area under the curve AUG0-inf” value in [1] worked out at 69.3 µM·h. The “Mean drug concentration in urine (0-24 h) Curine, 0-24 h” value in series [1] (urine 0-24 h) is 71.622 µM. In series [1] (male, cynomolgus monkey, plasma, po, read-out: Half-life T1/2 (converted)), the half-life was 3.78 h. For the same compound, in series [1] (male, cynomolgus monkey, plasma, po, read-out: Peak concentration Cmax), the Cmax was found to be 37.2 µM. The MRT inf in series [1] (male, cynomolgus monkey, plasma, po, read-out: Residence time MRT0-inf) was found to be 3.44 h. The Tmax (in general, the time at which the peak concentration occurs) in series [1] (male, cynomolgus monkey, plasma, po, read-out: Time to peak Tmax) is 0.58 h. Besides, the Amount of lesinurad and metabolites (Total 100) in series [2] was 100%; in series [3], 100%; in series [4], 92.1%; in series [5], 100%; in the series with Liver cells [6] it was 100%; in the series on Liver cells [7] it was 100%. Besides, the values for the Amount of lesinurad and metabolites (Total 100) in the series with Liver cells [8] and in the series on Liver cells [9] were 98.1% and 92.1%, respectively. In addition, the results for the “Percentage of the administered dose” value in series [10] (Faeces) and in [10] (Urine) were 1.5% and 31.3%, respectively.
